From US8815935B2, “Inhibitors of protein prenyltransferases” (The Regents of the University of California, priority 2008, dated 2014)
“Also recorded” adds a separate entry of the source. Like-named read-outs stand apart in the source and are kept apart here.

Columns and labels:
GGTase-I = target: T1, GGTase-I (Rattus norvegicus, UniProt P53610+Q04631); assay: In vitro GGTase-I enzyme assay (IC50, kinetics); type: biochemical; conditions: for IC50: read-out: In vitro (enzyme assay) IC50, GGTase I
T1 construct: purchased JENA BIOSCIENCE
How it was run: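 Rat GGTase-I (50 nM) with 0.5 μM [3H]-GGPP and 2 μM MBP-RhoA in Tris-HCl pH 7.5, MgCl2, ZnCl2, DTT, 2.5% DMSO, 10 min at 30 °C; radiolabel incorporation by TCA filter binding and scintillation. Kinetics: 5 min reactions varying GGPP or RhoA at fixed other components.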

FTase = target: T2, FTase (Rattus norvegicus, UniProt Q02293+Q04631); assay: In vitro FTase assay (K-Ras4B substrate, [3H]FPP); type: biochemical
T2 construct: purchased JENA BIOSCIENCE
Source text: To further characterize the pilot library, inhibitors of protein farnesyltransferase were identified. This was accomplished by using K-Ras4B as a substrate protein, tritiated farnesylpyrophosphate ([^3H]FPP) and protein farnesyltransferase. See Finegold, A. A., Johnson, D. I., Farnsworth, C. C., Gelb, M. H., Judd, S. R., Glomset, J. A. and Tamanoi, F. (1991) Protein geranylgeranyltransferase of Saccharomyces cerevisiae is specific for Cys-Xaa-Xaa-Leu motif and requires the CDC43 gene product but not the DPR1 gene product. Proc. Natl. Acad. Sci. USA 88, 4448-4452. […] On the other hand, the structure of the compounds P1-F11, P2-B7 and P2-E9 resemble those of GGTIs. The FTI P1-F11 resembles the GGTI P1-F10, while the FTI P2-B7 resembles the GGTI P2-C10. The FTI P2-E9 is similar to the GGTI P2-G3. Similarity of some GGTI and FTI compounds may point to common structural features between the two closely related enzymes. As described before, FTase and GGTase I have similar three-dimensional structures and a shared alpha subunit. On the other hand, FTase specific inhibitors may recognize a region(s) that is different between the two enzymes.
Examples 2-8 illustrate assays of bioactivity. These methods are applicable to the compounds of the present invention having the particular linkers and scaffolds described herein, to determine their activity. […] Varying concentrations of the two compounds were added to each enzyme reaction. The FTase (protein farnesyltransferase) assay was carried out using K-Ras4B as a substrate protein, FTase (JENA Bioscience, San Diego, Calif.) and [3H]farnesyl pyrophosphate. Incubation was for 30 min at 37° C.
GGTase-I and FTase activities were determined by following the incorporation of radiolabeled isoprenoid [^3H]-geranylgeranyl or [^3H]-farnesyl into substrate proteins. FTase or GGTase-I (50 nM) were used to initiate reactions containing 0.4 μM of [^3H]-FPP or 0.5 μM of [^3H]-GGPP and 2 μM of MBP-tagged substrates (K-Ras4B for FTase; RhoA for GGTase-I) in 20 μl of buffer {50 mM Tris-HCl (pH 7.5), 10 mM MgCl2, […] and 5 mM DTT}. Inhibitors were added at the indicated concentrations. The final DMSO concentration was 2.5% for all samples.
Reactions were carried out for 10 min at 30° C. The reaction mixture was spotted onto a filter paper, treated with 10% trichloroacetic acid (TCA) followed by ethanol and acetone washing. The filter was counted using a scintillation counter. Kinetic assays in which the GGPP concentration was varied employed fixed concentrations of GGTase-I and RhoA, and reactions were carried out for 5 min. Similarly, fixed concentrations of GGTase-I and GGPP were used when the amount of RhoA was varied.

K562 cells = assay: K562 cell growth inhibition; type: cell-based, human; conditions: 72 hours
How it was run: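 Human erythroleukemia K562 cells exposed to compound for 72 hours. Cell number measured with CCK-8 and viability expressed relative to the DMSO control.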

| Structure (SMILES) | specificity among GGTase-I, FTase and GGTase-II (GGTase-I; FIGS. 20A-20C, varying concentrations) | Ki (GGTase-I; Michaelis-Menten analysis) | IC50 (GGTase-I; Tables 5, 14) | mode of GGTase-I inhibition with respect to GGPP (GGTase-I; varying GGPP, fixed RhoA) | mode of GGTase-I inhibition with respect to the protein substrate (RhoA) (GGTase-I; varying RhoA, fixed GGPP) | inhibition of FTase activity (FIG. 16) (FTase; P3-D9, P3-E5: concentration increased to 100 (unit not given)) | inhibition of FTase activity (FTase; concentration increased to 50,000 nM) | inhibition of proliferation of K562 cells (K562 cells; FIG. 23) | IC50 (GGTase-I; Tables 3, 5, 7) | inhibition of FTase activity (FTase; concentration increased to 100,000 nM) | IC50 (K562 cells; Homo sapiens, K562, FIG. 36A, read-out: IC50, inhibition of proliferation of K562 cells) |
| --- | --- | --- | --- | --- | --- | --- | --- | --- | --- | --- | --- |
| Cc1ccccc1S(=O)(=O)N1[C@@H](c2cccc(Cl)c2)C(C(=O)O)=CC[C@H]1c1ccc(Cl)cc1 [P3-E5] | specifically inhibit GGTase I | 0.187 ± 0.013 µM | 0.313 µM | do not compete with GGPP; also recorded: uncompetitive inhibitors | compete with a substrate protein; also recorded: competitive inhibitors | no inhibition of FTase activity | no significant inhibition | inhibit the growth of the K562 cells | – | – | – |
| Cc1ccccc1S(=O)(=O)N1C(c2ccc(Cl)cc2)C(C(=O)NC(Cc2ccccc2)C(N)=O)=CC1C(C)(C)C (centres unmarked) [P61-A6] | – | – | – | – | – | – | – | – | 1 µM | No significant inhibition | 2.2 µM |
